ChEMBL document CHEMBL1201862, “PubChem BioAssay data set” (2004)
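Briefly, cells in 96-well plates were exposed to five compound concentrations for 48 h, and endpoints were estimated by linear interpolation. GI50 is the concentration that inhibits growth by half.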 Calls of active or inactive are those of the source. No stated cut-off is given here; in the data, active = GI50 up to about 1.1 µM and inactive = higher.

Experiments:
Test in all cases: NCI anticancer screen, dose series, 48 h
A549 = test system: A549
COLO 205 = test system: COLO 205
DMS-114 = test system: DMS-114
DMS-273 = test system: DMS-273
HCC 2998 = test system: HCC 2998
KM-20L2 = test system: KM-20L2
LXFL 529 = test system: LXFL 529
MOLT-4 = test system: MOLT-4
NCI-H460 = test system: NCI-H460
RPMI-8226 = test system: RPMI-8226
SF-268 = test system: SF-268
SK-MEL-5 = test system: SK-MEL-5
SNB-78 = test system: SNB-78
SR = test system: SR
XF498 = test system: XF498
DU-145 = test system: DU-145
MCF7 = test system: MCF7
MDA-N = test system: MDA-N
T47D = test system: T47D

Compound | GI50 (A549) | GI50 (COLO 205) | GI50 (DMS-114) | GI50 (DMS-273) | GI50 (HCC 2998) | GI50 (KM-20L2) | GI50 (LXFL 529) | GI50 (MOLT-4) | GI50 (NCI-H460) | GI50 (RPMI-8226) | GI50 (SF-268) | GI50 (SK-MEL-5) | GI50 (SNB-78) | GI50 (SR) | GI50 (XF498) | GI50 (DU-145) | GI50 (MCF7) | GI50 (MDA-N) | GI50 (T47D)
CCOc1ccc(NC(=O)C(=O)CC(=O)c2c(C)[n+]([O-])c3ccccc3[n+]2[O-])cc1 | > 100 µM (inactive) | > 100 µM (inactive) | > 100 µM (inactive) | > 100 µM (inactive) | > 100 µM (inactive) | > 100 µM (inactive) | > 100 µM (inactive) | 81.5 µM (inactive) | > 100 µM (inactive) | > 100 µM (inactive) | > 100 µM (inactive) | > 100 µM (inactive) | > 100 µM (inactive) | 64.9 µM (inactive) | 59.8 µM (inactive) | – | – | – | –
COc1ccc(OC)c(/C=C/NC=O)c1 | > 100 µM (inactive) | > 71.3 µM (inactive) | > 100 µM (inactive) | > 100 µM (inactive) | > 100 µM (inactive) | > 100 µM (inactive) | > 100 µM (inactive) | > 100 µM (inactive) | > 100 µM (inactive) | > 100 µM (inactive) | > 100 µM (inactive) | > 100 µM (inactive) | > 100 µM (inactive) | 22 µM (inactive) | > 100 µM (inactive) | > 100 µM (inactive) | – | – | –
COc1c2c(nc3ccccc13)-c1cc3c(c(=O)n1C2)COC(=O)C3(O)CC(=O)N1CCOCC1 (stereo not given) | 10.5 µM (inactive) | 27.8 µM (inactive) | 0.664 µM (active) | 1.11 µM (active) | 18.2 µM (inactive) | 15.4 µM (inactive) | 13.9 µM (inactive) | 0.29 µM (active) | 1.17 µM (inactive) | 6.43 µM (inactive) | 0.532 µM (active) | 4.09 µM (inactive) | 32.4 µM (inactive) | 0.23 µM (active) | 7.96 µM (inactive) | 3.3 µM (inactive) | 1.06 µM (active) | 19.5 µM (inactive) | 3.63 µM (inactive)
